Where a chain is given by its changes, count along the chain named. “And” between values parts separate entries of the source, which are not always exact repeats. Identical values can stand only once.
Columns and labels:
SF-295 = assay: NCI 60 antitumor screening (single dose / five doses); format: cell-based; settings: Homo sapiens; for inhibition at 10 µM: SF-295 (CNS cancer), single dose 10 μM, read-out: Growth inhibition percentage (GI %); for GI50: SF-295, five doses (0.01–100 μM), read-out: GI50
[1] = system: 60 human subpanel cancer cell lines; assay: NCI 60 antitumor screening, mean over the panel (single dose); format: cell-based; settings: mean over 60 cancer cell lines, single dose 10 μM
Protocol: Initially, the anticancer effects of target compounds have been assessed at a single (10 μM) dose. The obtained data have been reported as mean-graph of the percent growth (G%) of the treated cancer cells. Percentage growth inhibition (GI%) is calculated (100 − G%) and pronounced in Table 1. […] Target compounds in series (III) with manipulated linkers disclosed lower potency. Superiorly, eight s-triazine derivatives from the three series (6a, 6c, 6d, 7a, 7g, 7i, 7l, and 8b) have shown potent broad-spectrum anticancer activity against most the examined cell lines, whereas most of the remaining triazine derivatives, 20 derivatives, have exerted selective anti-proliferative actions towards certain cancer cell lines (Supplementary).
The antitumor screening was performed for 60 human cancer cell lines under the protocol of NCI (www.dtp.nci.nih.gov), the Drug Evaluation Branch, Bethesda, MD. All submitted compounds were nominated based on the degree of structural diversity and computer modelling techniques for evaluation of their anticancer activity. The screening process for antineoplastic activity passes through two successive levels, starting with the assessment of target compounds at a single dose of 10 μM against 60 cancer cell lines on nine types of human tumours. These experiments were done on a triplicate following. The output from the single‐dose screening was covered as a mean graph, and then, analysed by the COMPARE program. Finally, the compounds which disclosed subpanel cancer cell growth (G %) equal to or less than 10% in at least eight cancer cell lines get to pass the assessment against the 60 cell lines at five doses (0.01–100 μM). By using GraphPad Prism version 9.0 (Graphpad Software Inc., La Jolla, CA), GI50, TGI, as well as LC50 dose‐response parameters were computed and presented for each compound (Supplementary information)[55–57].

IDH2^R140Q = target: T1, IDH2^R140Q (Homo sapiens, UniProt P48735, R140Q); assay: biochemical
T1 sequence (P48735 40-452 R140Q): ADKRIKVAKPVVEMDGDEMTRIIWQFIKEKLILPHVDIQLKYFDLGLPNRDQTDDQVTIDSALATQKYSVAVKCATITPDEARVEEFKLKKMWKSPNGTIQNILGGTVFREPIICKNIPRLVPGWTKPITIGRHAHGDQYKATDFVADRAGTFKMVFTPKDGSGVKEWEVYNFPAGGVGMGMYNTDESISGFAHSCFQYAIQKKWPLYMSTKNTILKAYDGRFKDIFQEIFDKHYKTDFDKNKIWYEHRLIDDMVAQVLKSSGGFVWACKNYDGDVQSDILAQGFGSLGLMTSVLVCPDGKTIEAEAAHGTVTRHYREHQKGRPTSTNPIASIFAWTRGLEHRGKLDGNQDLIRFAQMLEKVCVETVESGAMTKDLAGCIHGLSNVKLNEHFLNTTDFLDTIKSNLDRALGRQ

LOX IMVI = assay: NCI 60 antitumor screening (single dose / five doses); format: cell-based; settings: Homo sapiens; for inhibition at 10 µM: LOX IMVI (melanoma), single dose 10 μM, read-out: Growth inhibition percentage (GI %); for GI50: LOX IMVI, five doses (0.01–100 μM), read-out: GI50
SK-MEL-2 = assay: as above; format: cell-based; settings: Homo sapiens; for inhibition at 10 µM: SK-MEL-2 (melanoma), single dose 10 μM, read-out: Growth inhibition percentage (GI %); for GI50: SK-MEL-2, five doses (0.01–100 μM)
K-562 = assay: as above; format: cell-based; settings: Homo sapiens, K562; for inhibition at 10 µM: K-562 (leukaemia), single dose 10 μM, read-out: Growth inhibition percentage (GI %); for GI50: K-562, five doses (0.01–100 μM), read-out: GI50
HL-60(TB) = assay: as above; format: cell-based; settings: Homo sapiens; for inhibition at 10 µM: HL-60(TB) (leukaemia), single dose 10 μM, read-out: Growth inhibition percentage (GI %); for GI50: HL-60(TB), five doses (0.01–100 μM), read-out: GI50
wild type IDH2 = target: T2, wild type IDH2 (Homo sapiens, UniProt P48735); assay: IDH2 enzyme inhibition assay (wild type IDH Assay Kit)
T2 sequence (P48735 40-452): T1 sequence (P48735 40-452 R140Q) with Q101R

Oc1ccccc1/C=N/Nc1nc(N/N=C/c2ccccc2O)nc(N2CCOCC2)n1 [compound 6a, 2-[(1e)-(2-{4-[(E)-2-[(2-Hydroxyphenyl)methylidene]hydrazin-1-yl]-6-(morpholin-4-yl)-1,3,5-triazin-2-yl}hydrazin-1-ylidene)methyl]phenol]
inhibition at 10 µM (SF-295): 80.4% | GI50 (SF-295): 7670 nM | Mean GI % [1]: 66.07% | IC50 (IDH2^R140Q): 373 ± 18.2 nM | inhibition at 10 µM (LOX IMVI): 96% | GI50 (LOX IMVI): 280 nM | inhibition at 10 µM (SK-MEL-2): 28% | GI50 (SK-MEL-2): 6060 nM | inhibition at 10 µM (K-562): 74.6% | GI50 (K-562): 680 nM | inhibition at 10 µM (HL-60(TB)): 96.3% | GI50 (HL-60(TB)): 190 nM

Clc1cccc(/C=N/Nc2nc(N/N=C/c3cccc(Cl)c3)nc(N3CCOCC3)n2)c1 [compound 6d, 2,4-Bis[(E)-2-[(3-chlorophenyl)methylidene]hydrazin-1-yl]-6-(morpholin-4-yl)-1,3,5-triazine]
inhibition at 10 µM (SF-295): 42.4% | GI50 (SF-295): 4130 nM | Mean GI % [1]: 53.70% and 53.69% | IC50 (IDH2^R140Q): 1870 ± 91.2 nM | inhibition at 10 µM (LOX IMVI): 67.4% | GI50 (LOX IMVI): 2990 nM | inhibition at 10 µM (SK-MEL-2): 102% | GI50 (SK-MEL-2): 2180 nM | inhibition at 10 µM (K-562): 88.2% | GI50 (K-562): 690 nM | inhibition at 10 µM (HL-60(TB)): 110% | GI50 (HL-60(TB)): 500 nM

Fc1cccc(/C=N/Nc2nc(N/N=C/c3cccc(F)c3)nc(N3CCOCC3)n2)c1 [compound 6e, 2,4-Bis[(E)-2-[(3-Fluorophenyl)methylidene]hydrazin-1-yl]-6-(morpholin-4-yl)-1,3,5-triazine]
inhibition at 10 µM (SF-295): -8.45% | Mean GI % [1]: 15.60% | IC50 (IDH2^R140Q): 67 ± 3.27 nM | IC50 (wild type IDH2): 2300 ± 90 nM | inhibition at 10 µM (LOX IMVI): 0.67% | inhibition at 10 µM (SK-MEL-2): 2.51% | inhibition at 10 µM (K-562): 35.3% | inhibition at 10 µM (HL-60(TB)): 50.9%

CN(C)c1ccc(/C=N/Nc2nc(N/N=C/c3ccc(N(C)C)cc3)nc(N3CCOCC3)n2)cc1 [compound 6g, 4-[(1e)-(2-{4-[(E)-2-{[4-(dimethylamino)phenyl]methylidene}hydrazin-1-yl]-6-(morpholin-4-yl)-1,3,5-triazin-2-yl}hydrazin-1-ylidene)methyl]-N,N-dimethylaniline]
inhibition at 10 µM (SF-295): 86.2% | Mean GI % [1]: 14.28% | IC50 (IDH2^R140Q): 336 ± 16.4 nM | inhibition at 10 µM (LOX IMVI): 12.3% | inhibition at 10 µM (SK-MEL-2): 1.45% | inhibition at 10 µM (K-562): 93.7% | inhibition at 10 µM (HL-60(TB)): 3.26%

Fc1cccc(Cl)c1/C=N/Nc1nc(N/N=C/c2c(F)cccc2Cl)nc(N2CCOCC2)n1 [compound 6l, 2,4-Bis[(E)-2-[(2-Chloro-6-fluorophenyl)methylidene]hydrazin-1-yl]-6-(morpholin-4-yl)-1,3,5-triazine]
inhibition at 10 µM (SF-295): 49.5% | Mean GI % [1]: 19.00% | IC50 (IDH2^R140Q): 158 ± 7.72 nM | IC50 (wild type IDH2): 3440 ± 130 nM | inhibition at 10 µM (LOX IMVI): 5.3% | inhibition at 10 µM (SK-MEL-2): 17.1% | inhibition at 10 µM (K-562): 43% | inhibition at 10 µM (HL-60(TB)): 26.1%

Oc1ccccc1/C=N/Nc1nc(N/N=C/c2ccccc2O)nc(N2CCCCC2)n1 [compound 7a, 2-[(1e)-(2-{4-[(E)-2-[(2-Hydroxyphenyl)methylidene]hydrazin-1-yl]-6-(piperidin-1-yl)-1,3,5-triazin-2-yl}hydrazin-1-ylidene)methyl] phenol]
inhibition at 10 µM (SF-295): 47.4% | Mean GI % [1]: 45.09% | IC50 (IDH2^R140Q): 130 ± 6.35 nM | IC50 (wild type IDH2): 5420 ± 210 nM | inhibition at 10 µM (LOX IMVI): 60.3% | inhibition at 10 µM (SK-MEL-2): 30.8% | inhibition at 10 µM (K-562): 61.8% | inhibition at 10 µM (HL-60(TB)): 52.6%

Brc1cccc(/C=N/Nc2nc(N/N=C/c3cccc(Br)c3)nc(N3CCCCC3)n2)c1 [compound 7c, 2,4-Bis[(E)-2-[(3-Bromophenyl)methylidene]hydrazin-1-yl]-6-(piperidin-1-yl)-1,3,5-triazine]
inhibition at 10 µM (SF-295): 2.91% | Mean GI % [1]: 2.56% | IC50 (IDH2^R140Q): 88.9 ± 4.34 nM | IC50 (wild type IDH2): 3130 ± 120 nM | inhibition at 10 µM (LOX IMVI): -5.74% | inhibition at 10 µM (SK-MEL-2): -2.13% | inhibition at 10 µM (K-562): 11.2% | inhibition at 10 µM (HL-60(TB)): 7.75%

Clc1cccc(/C=N/Nc2nc(N/N=C/c3cccc(Cl)c3)nc(N3CCCCC3)n2)c1 [compound 7d, 2,4-Bis[(E)-2-[(3-Chlorophenyl)methylidene]hydrazin-1-yl]-6-(piperidin-1-yl)-1,3,5-triazine]
inhibition at 10 µM (SF-295): 7.02% | Mean GI % [1]: 7.03% | IC50 (IDH2^R140Q): 370 ± 18 nM | inhibition at 10 µM (LOX IMVI): -4.97% | inhibition at 10 µM (SK-MEL-2): 13.9% | inhibition at 10 µM (K-562): 17% | inhibition at 10 µM (HL-60(TB)): 3.01%

Fc1cccc(/C=N/Nc2nc(N/N=C/c3cccc(F)c3)nc(N3CCCCC3)n2)c1 [compound 7e, 2,4-Bis[(E)-2-[(3-Fluorophenyl)methylidene]hydrazin-1-yl]-6-(piperidin-1-yl)-1,3,5-triazine]
inhibition at 10 µM (SF-295): 15.6% | Mean GI % [1]: 10.18% | IC50 (IDH2^R140Q): 176 ± 8.6 nM | IC50 (wild type IDH2): 5070 ± 200 nM | inhibition at 10 µM (LOX IMVI): 14.2% | inhibition at 10 µM (SK-MEL-2): 0.55% | inhibition at 10 µM (K-562): 38.6% | inhibition at 10 µM (HL-60(TB)): 31.9%

CN(C)c1ccc(/C=N/Nc2nc(N/N=C/c3ccc(N(C)C)cc3)nc(N3CCCCC3)n2)cc1 [compound 7g, 4-[(1e)-(2-{4-[(E)-2-{[4-(dimethylamino)phenyl]methylidene}chydrazin-1-yl]-6-(piperidin-1-yl)-1,3,5-triazin-2-yl}hydrazin-1-ylidene)methyl]-N,N-dimethylaniline]
inhibition at 10 µM (SF-295): -6.74% | GI50 (SF-295): 1960 nM | Mean GI % [1]: 35.10% | IC50 (IDH2^R140Q): 505 ± 24.7 nM | inhibition at 10 µM (LOX IMVI): 173% | GI50 (LOX IMVI): 1610 nM | inhibition at 10 µM (SK-MEL-2): -10.8% | GI50 (SK-MEL-2): 1990 nM | inhibition at 10 µM (K-562): 96.9% | GI50 (K-562): 890 nM | inhibition at 10 µM (HL-60(TB)): 138% | GI50 (HL-60(TB)): 2200 nM

Fc1cccc(Cl)c1/C=N/Nc1nc(N/N=C/c2c(F)cccc2Cl)nc(N2CCCCC2)n1 [compound 7l, 2,4-Bis[(E)-2-[(2-Chloro-6-fluorophenyl)methylidene]hydrazin-1-yl]-6-(piperidin-1-yl)-1,3,5-triazine]
inhibition at 10 µM (SF-295): 97.4% | GI50 (SF-295): 1010 nM | Mean GI % [1]: 81% and 81.15% | IC50 (IDH2^R140Q): 160 ± 7.81 nM | IC50 (wild type IDH2): 9500 ± 370 nM | inhibition at 10 µM (LOX IMVI): 80.4% | GI50 (LOX IMVI): 3770 nM | inhibition at 10 µM (SK-MEL-2): 126% | GI50 (SK-MEL-2): 1690 nM | inhibition at 10 µM (K-562): 67.7% | GI50 (K-562): 3080 nM | inhibition at 10 µM (HL-60(TB)): 98.7% | GI50 (HL-60(TB)): 2000 nM

O=C1Nc2ccc(Cl)cc2/C1=N\Nc1nc(N/N=C2/C(=O)Nc3ccc(Cl)cc32)nc(N2CCOCC2)n1 [compound 8b, (3E)-5-Chloro-3-[2–(4-{2-[(3E)-5-chloro-2-oxo-2,3-dihydro-1H-indol-3-ylidene]hydrazin-1-yl}6-(morpholin-4-yl)-1,3,5-triazin-2-yl)hydrazin-1-ylidene]-2,3-dihydro-1H-indol-2-one]
inhibition at 10 µM (SF-295): 54.4% | Mean GI % [1]: 47.89% | inhibition at 10 µM (LOX IMVI): 76.8% | inhibition at 10 µM (SK-MEL-2): 34.7% | inhibition at 10 µM (K-562): 67.1% | inhibition at 10 µM (HL-60(TB)): 27.8%

Reference: paper PMC9848300, “Discovery of novel enasidenib analogues targeting inhibition of mutant isocitrate dehydrogenase 2 as antileukaemic agents” (Journal of Enzyme Inhibition and Medicinal Chemistry, 2023)
